From patent US4478826A, “Renin inhibitory peptides” (Merck & Co., Inc., priority 1982, dated 1984)
Square brackets hold non-standard residues; d marks the D form. Peptide text beside a SMILES is read from it. * marks the point of attachment. Sta = CC(C)C[C@H](N)[C@@H](O)CC(=O)O; Isobutyryl = CC(C)C(=O)*

Biological target: T1, human renin (Homo sapiens, UniProt P00797)
T1 construct: Human plasma (lyophilized) was used as the source of human substrate and human renin; from tissue; host or cells: human plasma (lyophilized)
T1 sequence (P00797 67-406): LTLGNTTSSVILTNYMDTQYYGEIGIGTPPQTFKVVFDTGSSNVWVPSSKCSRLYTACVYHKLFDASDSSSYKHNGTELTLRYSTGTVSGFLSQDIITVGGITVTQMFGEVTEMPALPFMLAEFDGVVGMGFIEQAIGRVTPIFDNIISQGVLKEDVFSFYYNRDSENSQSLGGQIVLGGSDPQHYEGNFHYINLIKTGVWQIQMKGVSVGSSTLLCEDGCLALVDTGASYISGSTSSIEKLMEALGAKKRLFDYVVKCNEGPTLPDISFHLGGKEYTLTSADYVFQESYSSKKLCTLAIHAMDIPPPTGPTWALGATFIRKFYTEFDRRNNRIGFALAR
Assay: Human renin assay (radioimmunoassay of angiotensin I, human plasma)
Type: biochemical
Settings: human plasma (lyophilized) as source of human substrate and human renin; read-out: I50 (M) Human renin
Description: This method employs a radioimmunoassay technique to measure the amount of angiotensin I product of renin cleavage of its substrate. Human plasma (lyophilized) was used as the source of human substrate and human renin. I50 values were obtained by plotting data at several inhibitor concentrations.

Work on `CC(C)C[C@H](NC(=O)[C@H](Cc1c[nH]cn1)NC(=O)[C@H](Cc1ccccc1)NC(=O)[C@@H]1CCCN1C(=O)[C@H](Cc1c[nH]cn1)NC(=O)C(C)C)[C@@H](O)CC(=O)N[C@@H](C)C(=O)N[C@@H](Cc1ccccc1)C(N)=O` [IBU--His--Pro--Phe--His--Sta--Ala--Phe--NH2] (Isobutyryl-HPFH[Sta]AF-NH2) yielded an IC50 of 4.2e-08 M.
